Data: US10174047B2, “Thienodiazepine derivatives or pharmaceutically acceptable salts thereof, and pharmaceutical composition including the same as an active ingredient” (Industry-University Cooperation Foundation Hanyang …, priority 2015, dated 2019)
Like-named read-outs stand apart in the source and are kept apart here.

How the values were obtained:
[1] = tested on: A375P cell line (melanoma); test: Proliferation inhibition activity against A375P cell line (MTT assay); assay type: cell-based; settings: A375P melanoma cells; for GI50: MTT assay
Procedure: Measurement of Proliferation Inhibition Activity Against A375P Cell Line (Melanoma)
An A375P cell line purchased from ATCC was cultured in a DMEM medium [containing 10% FBS, 1% penicillin/streptomycin] at 37° C. in the presence of 5% CO2. The cultured A375P cell line was taken using 0.05% trypsin-0.02% EDTA, and seeded into a 96-well plate at a density of 5×10^3 cells per well.
Cell viability was measured using an MTT [3-(4,5-dimethylthiazol-2-yl)-2,5-diphenyltetrazolium bromide] assay (CellTiter 96 Assay, Promega) as follows. 15 μl of dye was placed per well, the cells were cultured for 2 hours, and then treated with 100 μl of a stop solution, and after 24 hours, absorbance was measured. One day after plating, they were treated with compounds. For treatment with compounds, […] of stock was prepared, and serially diluted to one-third in dimethyl sulfoxide (DMSO) to prepare a 12-point test compound plate, and 0.5 μl was added (final concentration DMSO 0.5%).
In the following Tables 1 to 3, in a case of GI50 being 10 to 30 μM, it was indicated as (+), in a case of it being 1 to 10 μM, it was indicated as (++), and in case of being less than 1 μM, it was indicated as (+++).

TIE2/TEK = TIE2/TEK (Homo sapiens, UniProt Q02763); test: Kinase panel screening; assay type: biochemical
Procedure: (§1) Using the compound of Example 43 (1-(4-((4-ethylpiperazine-1-yl)methyl)-3-(trifluoromethyl)phenyl)-3-(4-(2-oxo-2,3-dihydro-1H-thieno[3,4-b][1,4]diazepine-4-yl)phenyl)urea), kinase panel screening was conducted against 35 kinds of kinases at a concentration of 10 μM, and the results are shown in the following Tables 4 and 5 (percentages of enzymatic inhibitions exerted by compound 43 (10 μM) on 30 selected protein kinases).
(§2) Further, the IC50 values (50% inhibition concentration) of the compound of Example 43 against various kinases were calculated using GraphPad Prism 4.0 software, and the results are shown in the following Table 6.

c-Src = c-Src (Homo sapiens, UniProt P12931); test: Kinase panel screening; assay type: biochemical
Procedure: as §1, §2

EGFR = EGFR (Homo sapiens, UniProt P00533); test: Kinase panel screening; assay type: biochemical
Procedure: as §1, §2

FLT1/VEGFR1 = FLT1/VEGFR1 (Homo sapiens, UniProt P17948); test: Kinase panel screening; assay type: biochemical; settings: FLT1/VEGFR1, 10 μM
Procedure: as §1, §2

P38a/MAPK14 = P38a/MAPK14 (Homo sapiens, UniProt Q16539); test: Kinase panel screening; assay type: biochemical; settings: P38a/MAPK14, 10 μM
Procedure: as §1, §2

ITK = ITK (Homo sapiens, UniProt Q08881); test: Kinase panel screening; assay type: biochemical
Procedure: as §1, §2

LCK = LCK (Homo sapiens, UniProt P06239); test: Kinase panel screening; assay type: biochemical
Procedure: as §1, §2

FMS = FMS (Homo sapiens, UniProt P07333); test: Kinase panel screening; assay type: biochemical
Procedure: as §1, §2

FGFR2 = FGFR2 (Homo sapiens, UniProt P21802); test: Kinase panel screening; assay type: biochemical; settings: FGFR2, 10 μM
Procedure: as §1, §2

RET = RET (Homo sapiens, UniProt P07949); test: Kinase panel screening; assay type: biochemical
Procedure: as §1, §2

FAK/PTK2 = FAK/PTK2 (Homo sapiens, UniProt Q05397); test: Kinase panel screening; assay type: biochemical; settings: FAK/PTK2, 10 μM
Procedure: as §1, §2

GSK3b = GSK3b (Homo sapiens, UniProt P49841); test: Kinase panel screening; assay type: biochemical
Procedure: as §1, §2

MEK1 = MEK1 (Homo sapiens, UniProt Q02750); test: Kinase panel screening; assay type: biochemical; settings: MEK1, 10 μM
Procedure: as §1, §2

KDR/VEGFR2 = KDR/VEGFR2 (Homo sapiens, UniProt P35968); test: Kinase panel screening; assay type: biochemical; settings: KDR/VEGFR2, 10 μM
Procedure: as §1, §2

ERK1 = ERK1 (Homo sapiens, UniProt P27361); test: Kinase panel screening; assay type: biochemical; settings: ERK1, 10 μM
Procedure: as §1, §2

SYK = SYK (Homo sapiens, UniProt P43405); test: Kinase panel screening; assay type: biochemical
Procedure: as §1, §2

AKT1 = AKT1 (Homo sapiens, UniProt P31749); test: Kinase panel screening; assay type: biochemical; settings: AKT1, 10 μM
Procedure: as §1, §2

FLT3 = FLT3 (Homo sapiens, UniProt P36888); test: Kinase panel screening; assay type: biochemical; settings: FLT3, 10 μM
Procedure: as §1, §2

FLT4/VEGFR3 = FLT4/VEGFR3 (Homo sapiens, UniProt P35916); test: Kinase panel screening; assay type: biochemical; settings: FLT4/VEGFR3, 10 μM
Procedure: as §1, §2

FGFR3 = FGFR3 (Homo sapiens, UniProt P22607); test: Kinase panel screening; assay type: biochemical; settings: FGFR3, 10 μM
Procedure: as §1, §2

PDGFRa = PDGFRa (Homo sapiens, UniProt P16234); test: Kinase panel screening; assay type: biochemical
Procedure: as §1, §2

RAF1 = RAF1 (Homo sapiens, UniProt P04049); test: Kinase panel screening; assay type: biochemical; settings: RAF1, 10 μM
Procedure: as §1, §2

c-Kit = c-Kit (Homo sapiens, UniProt P10721); test: Kinase panel screening; assay type: biochemical
Procedure: as §1, §2

LYN = LYN (Homo sapiens, UniProt P07948); test: Kinase panel screening; assay type: biochemical
Procedure: as §1, §2

BRAF (V599E) = BRAF (V599E) (Homo sapiens, UniProt P15056, V600E); test: Kinase panel screening; assay type: biochemical
Procedure: as §1, §2

Aurora A = Aurora A (Homo sapiens, UniProt O14965); test: Kinase panel screening; assay type: biochemical
Procedure: as §1, §2

CDK2/cyclin E = CDK2/cyclin E (Homo sapiens, UniProt P24941); test: Kinase panel screening; assay type: biochemical
Procedure: as §1, §2

ALK = ALK (Homo sapiens, UniProt Q9UM73); test: Kinase panel screening; assay type: biochemical
Procedure: as §1, §2

CDK1/cyclin B = CDK1/cyclin B (Homo sapiens, UniProt P06493); test: Kinase panel screening; assay type: biochemical
Procedure: as §1, §2

IGF1R = IGF1R (Homo sapiens, UniProt P08069); test: Kinase panel screening; assay type: biochemical
Procedure: as §1, §2

ROS/ROS1 = ROS/ROS1 (Homo sapiens, UniProt P08922); test: Kinase panel screening; assay type: biochemical; settings: ROS/ROS1, 10 μM
Procedure: as §1, §2

c-MET = c-MET (Homo sapiens, UniProt P08581); test: Kinase panel screening; assay type: biochemical
Procedure: as §1, §2

BRAF = BRAF (Homo sapiens, UniProt P15056); test: Kinase panel screening; assay type: biochemical
Procedure: as §1, §2

FGFR1 = FGFR1 (Homo sapiens, UniProt P11362); test: Kinase panel screening; assay type: biochemical; settings: FGFR1, 10 μM
Procedure: as §1, §2

PDGFRb = PDGFRb (Homo sapiens, UniProt P09619); test: Kinase panel screening; assay type: biochemical
Procedure: as §1, §2

Chain of ITK (Q08881 whole entry, species assumed): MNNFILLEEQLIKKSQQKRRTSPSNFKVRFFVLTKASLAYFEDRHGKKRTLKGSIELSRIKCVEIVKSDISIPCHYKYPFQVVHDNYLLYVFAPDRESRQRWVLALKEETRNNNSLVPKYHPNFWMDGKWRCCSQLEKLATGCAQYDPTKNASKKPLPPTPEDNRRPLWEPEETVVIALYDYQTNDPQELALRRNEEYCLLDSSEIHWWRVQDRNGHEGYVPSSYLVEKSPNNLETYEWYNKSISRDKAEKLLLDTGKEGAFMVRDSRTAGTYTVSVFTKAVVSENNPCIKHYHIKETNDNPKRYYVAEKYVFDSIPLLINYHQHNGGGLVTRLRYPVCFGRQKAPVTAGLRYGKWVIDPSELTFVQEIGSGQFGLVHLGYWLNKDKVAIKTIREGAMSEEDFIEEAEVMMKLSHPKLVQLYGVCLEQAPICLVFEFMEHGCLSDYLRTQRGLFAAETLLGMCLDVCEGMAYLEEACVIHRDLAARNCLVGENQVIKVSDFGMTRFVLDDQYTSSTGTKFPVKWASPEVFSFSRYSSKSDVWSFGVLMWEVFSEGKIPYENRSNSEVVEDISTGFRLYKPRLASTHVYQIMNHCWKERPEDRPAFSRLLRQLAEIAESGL
Chain of FGFR1 (P11362 22-822, species assumed): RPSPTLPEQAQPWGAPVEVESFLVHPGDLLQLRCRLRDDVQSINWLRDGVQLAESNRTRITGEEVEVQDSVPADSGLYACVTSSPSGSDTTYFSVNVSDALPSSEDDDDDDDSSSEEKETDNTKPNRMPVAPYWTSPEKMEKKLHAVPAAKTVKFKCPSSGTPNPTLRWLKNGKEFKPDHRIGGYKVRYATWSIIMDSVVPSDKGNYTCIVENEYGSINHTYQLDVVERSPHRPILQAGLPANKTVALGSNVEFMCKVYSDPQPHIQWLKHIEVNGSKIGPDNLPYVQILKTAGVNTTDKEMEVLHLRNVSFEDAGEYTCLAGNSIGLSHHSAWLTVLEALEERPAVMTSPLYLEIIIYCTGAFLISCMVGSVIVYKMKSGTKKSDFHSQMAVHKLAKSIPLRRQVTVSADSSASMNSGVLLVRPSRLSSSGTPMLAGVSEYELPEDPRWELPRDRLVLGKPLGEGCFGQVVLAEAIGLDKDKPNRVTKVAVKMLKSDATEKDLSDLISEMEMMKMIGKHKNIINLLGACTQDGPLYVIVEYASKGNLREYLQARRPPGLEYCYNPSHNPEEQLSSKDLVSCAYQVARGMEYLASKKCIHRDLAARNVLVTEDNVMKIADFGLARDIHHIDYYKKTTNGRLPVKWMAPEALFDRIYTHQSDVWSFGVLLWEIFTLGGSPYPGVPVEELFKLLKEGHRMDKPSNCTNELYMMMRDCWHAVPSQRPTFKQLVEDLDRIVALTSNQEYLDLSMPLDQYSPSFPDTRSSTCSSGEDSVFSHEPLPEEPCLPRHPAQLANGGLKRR
Chain of c-Src (P12931 whole entry): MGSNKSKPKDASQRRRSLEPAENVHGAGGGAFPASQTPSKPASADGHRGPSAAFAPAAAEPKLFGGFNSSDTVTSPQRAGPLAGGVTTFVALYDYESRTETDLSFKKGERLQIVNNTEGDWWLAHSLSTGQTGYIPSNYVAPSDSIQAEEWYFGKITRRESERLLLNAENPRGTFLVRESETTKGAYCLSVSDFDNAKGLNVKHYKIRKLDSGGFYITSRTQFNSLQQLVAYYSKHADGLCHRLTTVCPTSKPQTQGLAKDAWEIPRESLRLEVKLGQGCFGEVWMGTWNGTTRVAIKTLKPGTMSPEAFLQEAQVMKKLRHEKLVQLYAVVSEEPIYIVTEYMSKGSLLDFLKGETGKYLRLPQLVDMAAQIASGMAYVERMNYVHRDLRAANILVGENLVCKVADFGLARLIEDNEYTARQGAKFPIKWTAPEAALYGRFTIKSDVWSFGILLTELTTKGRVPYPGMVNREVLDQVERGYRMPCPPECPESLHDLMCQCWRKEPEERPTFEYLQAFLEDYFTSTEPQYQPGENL
Chain of FAK/PTK2 (Q05397 whole entry): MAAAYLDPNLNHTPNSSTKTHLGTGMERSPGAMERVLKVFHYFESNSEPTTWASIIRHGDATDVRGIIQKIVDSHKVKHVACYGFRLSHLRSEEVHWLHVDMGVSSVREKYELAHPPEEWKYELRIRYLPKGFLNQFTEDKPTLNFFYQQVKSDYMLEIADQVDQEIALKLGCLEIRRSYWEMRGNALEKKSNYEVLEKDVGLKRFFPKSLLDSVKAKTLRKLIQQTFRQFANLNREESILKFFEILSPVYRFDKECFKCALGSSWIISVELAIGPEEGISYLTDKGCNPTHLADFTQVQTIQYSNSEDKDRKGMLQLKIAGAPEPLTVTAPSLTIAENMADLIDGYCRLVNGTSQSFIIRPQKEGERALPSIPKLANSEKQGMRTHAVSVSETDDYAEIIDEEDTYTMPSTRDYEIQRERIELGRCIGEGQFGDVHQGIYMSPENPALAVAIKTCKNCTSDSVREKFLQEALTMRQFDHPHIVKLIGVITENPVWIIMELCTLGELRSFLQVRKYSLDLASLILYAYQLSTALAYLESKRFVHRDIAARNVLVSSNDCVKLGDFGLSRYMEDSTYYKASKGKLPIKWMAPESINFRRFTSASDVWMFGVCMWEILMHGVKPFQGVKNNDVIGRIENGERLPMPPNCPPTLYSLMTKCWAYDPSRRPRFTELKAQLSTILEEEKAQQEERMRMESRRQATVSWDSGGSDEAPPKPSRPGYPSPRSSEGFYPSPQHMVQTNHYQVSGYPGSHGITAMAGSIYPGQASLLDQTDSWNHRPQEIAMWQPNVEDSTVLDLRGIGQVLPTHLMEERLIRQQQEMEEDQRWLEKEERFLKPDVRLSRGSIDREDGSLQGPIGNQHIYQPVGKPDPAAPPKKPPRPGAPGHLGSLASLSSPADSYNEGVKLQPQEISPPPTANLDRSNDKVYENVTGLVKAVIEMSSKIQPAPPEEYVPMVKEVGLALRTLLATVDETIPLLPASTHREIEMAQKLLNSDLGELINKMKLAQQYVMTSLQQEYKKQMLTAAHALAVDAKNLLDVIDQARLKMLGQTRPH
Chain of P38a/MAPK14 (Q16539 whole entry): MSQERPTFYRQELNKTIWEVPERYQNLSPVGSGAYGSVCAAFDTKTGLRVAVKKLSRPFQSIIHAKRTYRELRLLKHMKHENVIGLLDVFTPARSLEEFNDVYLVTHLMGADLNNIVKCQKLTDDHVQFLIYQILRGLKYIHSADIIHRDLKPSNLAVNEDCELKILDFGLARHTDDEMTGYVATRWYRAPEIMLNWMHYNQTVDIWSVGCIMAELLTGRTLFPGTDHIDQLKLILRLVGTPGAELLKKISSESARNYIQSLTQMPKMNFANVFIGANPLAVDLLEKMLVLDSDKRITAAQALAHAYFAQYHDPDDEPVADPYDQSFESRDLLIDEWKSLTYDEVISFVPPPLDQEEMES
Chain of MEK1 (Q02750 whole entry): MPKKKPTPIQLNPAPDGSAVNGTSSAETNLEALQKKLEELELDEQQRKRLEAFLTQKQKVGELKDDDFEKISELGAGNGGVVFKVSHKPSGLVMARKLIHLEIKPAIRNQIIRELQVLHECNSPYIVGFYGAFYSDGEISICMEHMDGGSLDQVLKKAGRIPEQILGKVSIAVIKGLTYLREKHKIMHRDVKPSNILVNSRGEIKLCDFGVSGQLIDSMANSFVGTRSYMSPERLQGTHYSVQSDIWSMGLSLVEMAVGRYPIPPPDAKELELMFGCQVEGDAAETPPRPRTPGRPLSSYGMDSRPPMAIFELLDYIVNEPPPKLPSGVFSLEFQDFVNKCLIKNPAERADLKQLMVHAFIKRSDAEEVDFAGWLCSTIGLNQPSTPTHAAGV
Chain of GSK3b (P49841 whole entry): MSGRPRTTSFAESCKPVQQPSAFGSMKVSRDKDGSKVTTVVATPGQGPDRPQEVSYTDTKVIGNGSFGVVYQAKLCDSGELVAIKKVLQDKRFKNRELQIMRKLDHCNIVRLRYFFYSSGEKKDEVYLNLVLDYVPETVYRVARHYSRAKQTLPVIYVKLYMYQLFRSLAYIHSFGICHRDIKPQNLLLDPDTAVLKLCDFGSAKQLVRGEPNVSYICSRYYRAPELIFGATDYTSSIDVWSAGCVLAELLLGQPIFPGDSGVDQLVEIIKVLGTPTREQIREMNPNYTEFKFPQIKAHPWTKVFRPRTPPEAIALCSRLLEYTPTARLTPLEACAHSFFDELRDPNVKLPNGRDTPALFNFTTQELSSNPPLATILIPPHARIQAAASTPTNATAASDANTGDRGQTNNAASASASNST
Chain of LCK (P06239 whole entry): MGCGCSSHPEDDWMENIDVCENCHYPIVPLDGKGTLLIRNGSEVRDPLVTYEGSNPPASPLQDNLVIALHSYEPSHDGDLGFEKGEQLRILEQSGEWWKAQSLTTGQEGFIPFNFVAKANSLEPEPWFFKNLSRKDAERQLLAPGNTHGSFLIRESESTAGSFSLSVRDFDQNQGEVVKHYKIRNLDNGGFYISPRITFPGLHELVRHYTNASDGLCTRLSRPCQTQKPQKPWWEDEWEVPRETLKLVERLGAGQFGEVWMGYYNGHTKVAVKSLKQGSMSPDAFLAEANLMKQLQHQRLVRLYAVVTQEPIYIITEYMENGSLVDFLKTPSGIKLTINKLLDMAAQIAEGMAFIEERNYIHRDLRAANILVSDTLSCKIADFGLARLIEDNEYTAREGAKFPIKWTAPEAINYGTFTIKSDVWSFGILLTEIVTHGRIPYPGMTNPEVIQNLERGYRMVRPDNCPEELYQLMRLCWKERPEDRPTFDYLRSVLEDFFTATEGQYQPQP

GI50 ([1]; read-out: A375P (GI50)): < 1 µM | GI50 ([1]; read-out: GI50 value against A375P): 1.45 µM | inhibition at 10 µM (TIE2/TEK): 64.9% | inhibition at 10 µM (c-Src): 55.2% | inhibition at 10 µM (EGFR): 24.8% | inhibition at 10 µM (FLT1/VEGFR1): 79.1% | inhibition at 10 µM (P38a/MAPK14): 89.9% | inhibition at 10 µM (ITK): 20.7% | inhibition at 10 µM (LCK): 79.3% | inhibition at 10 µM (FMS): 100% | inhibition at 10 µM (FGFR2): 29.9% | inhibition at 10 µM (RET): 99.1% | inhibition at 10 µM (FAK/PTK2): 41.2% | inhibition at 10 µM (GSK3b): 8.62% | inhibition at 10 µM (MEK1): 5.26% | inhibition at 10 µM (KDR/VEGFR2): 60.2% | inhibition at 10 µM (ERK1): 1.22% | inhibition at 10 µM (SYK): 57.4% | inhibition at 10 µM (AKT1): 3.23% | inhibition at 10 µM (FLT3): 98.9% | inhibition at 10 µM (FLT4/VEGFR3): 95.8% | inhibition at 10 µM (FGFR3): 45% | inhibition at 10 µM (PDGFRa): 85.9% | inhibition at 10 µM (RAF1): 86.2% | inhibition at 10 µM (c-Kit): 85.9% | inhibition at 10 µM (LYN): 89.4% | inhibition at 10 µM (BRAF (V599E)): 43.9% | inhibition at 10 µM (Aurora A): 20.4% | inhibition at 10 µM (CDK2/cyclin E): 0.28% | inhibition at 10 µM (ALK): 41% | inhibition at 10 µM (CDK1/cyclin B): 2.68% | inhibition at 10 µM (IGF1R): 1.34% | inhibition at 10 µM (ROS/ROS1): 3.71% | inhibition at 10 µM (c-MET): 21.7% | inhibition at 10 µM (BRAF): 32% | inhibition at 10 µM (FGFR1): 34.4% | inhibition at 10 µM (PDGFRb): 96.1%
Compound: CCN1CCN(Cc2ccc(NC(=O)Nc3ccc(C4=Nc5cscc5NC(=O)C4)cc3)cc2C(F)(F)F)CC1 [Example 43, 1-(4-((4-ethylpiperazine-1-yl)methyl)-3-(trifluoromethyl)phenyl)-3-(4-(2-oxo-2,3-dihydro-1H-thieno[3,4-b][1,4]diazepine-4-yl)phenyl)urea]
effects against A375P ([1]; statement in words): significant effects
